Measurements: PMC5818615, “Use of HuH6 and other human-derived hepatoma lines for the detection of genotoxins: a new hope for laboratory animals?” (Archives of Toxicology, 2017)
Like-named read-outs stand apart in the source and are kept apart here. Marks after values point to notes of the source that are not given here.

Experiments:
HepaRG cells [1] = tested on: HepaRG cells
Method: (§1) The SCGE experiments were conducted as described in an international guideline (Tice et al. [2000]). Reagents for the assays (lysis solution and alkaline electrophoresis buffer) and agarose-coated slides were prepared according to Collins and Dusinska ([2009]).
(§2) Briefly, cells were sub-cultured in 1.0 ml medium in 24–well tissue-culture plates (Sarstedt Inc., Newton, NC, USA). After 24 h, the media were changed and the cells exposed to different concentrations of the test compounds or to the solvent controls (PBS or DMSO). […] To terminate the treatment, the cells were washed twice with PBS (1.0 ml), trypsinized (100 µl T/E per well, 4 min) and then resuspended in 400 µl culture medium containing FBS. Subsequently, the suspensions were transferred to Eppendorf tubes and centrifuged (200g, 5 min). Cell pellets were resuspended in cold PBS.
(§3) In all experiments, acute toxic effects were determined with a CASY® Cell Counter and Analyzer System (Schärfe-System GmbH, Reutlingen, Germany) (Lindl et al. [2005]). SCGE assays were only performed when the viability of the cultures was ≥ 70% (Koppen et al. [2017]). Per experimental point, two cultures were set up in parallel and from each one slide with two separate gels (30,000 cells/gel) was prepared. After unwinding (40 min, pH > 13) and electrophoresis (30 min, 0.75 V/cm, ~ 300 mA, 4 °C, pH > 13), 50 cells were evaluated per gel (200 cells per experimental point). As an endpoint, we determined the tail intensities (“% DNA in tail”) with a computer-aided system Comet Assay IV (Perceptive Instruments, Bury St Edmunds, UK), which is at present the most widely used parameter (Collins et al. [2008]; Moller [2006]). For each gel, the median of the tail intensity was calculated.

HCC 1.2 cells = tested on: HCC 1.2 cells
Method: as §1, §2, §3

Hep3B cells = tested on: Hep3B cells
Method: as §1, §2, §3

HepG2 cells = tested on: HepG2 cells
Method: as §1, §2, §3

HuH6 cells = tested on: HuH6 cells
Method: as §1, §2, §3

HuH7 cells = tested on: HuH7 cells
Method: as §1, §2, §3

PLC/PRF cells = tested on: PLC/PRF cells
Method: as §1, §2, §3

SK-Hep1 cells = tested on: SK-Hep1 cells
Method: as §1, §2, §3

SNU-398 cells = tested on: SNU-398 cells
Method: as §1, §2, §3

SNU-449 cells = tested on: SNU-449 cells
Method: as §1, §2, §3

WRL68 cells = tested on: WRL68 cells
Method: as §1, §2, §3

[2] = tested on: human derived liver cell lines
Method: as §1, §2, §3

JHH6 cells = tested on: JHH6 cells
Method: as §1, §2, §3

[3] = tested on: primary human hepatocytes; conditions: cited from earlier work
HepaRG cells [4] = conditions: ref Le Hegarat et al. [2014]; cited from earlier work
p53 protein = assay: Induction of p53 protein expression (Western Blot) in liver cell lines; format: cell-based, human; parameters: key to P53 protein expression (Western Blot) Induced: No expression is indicated with −; background expression with +; induced expression with ++; highly induced expression with +++; conditions: for P53 protein expression (Western Blot) Induced: 30 µM B(a)P for 24 h
Method: (§4) The expression of the p53 gene in the different cell lines was analyzed using real-time quantitative PCR (RT-qPCR) according to the description of Straser et al. ([2013]). The protein was quantified by Western blotting as described by Pezdirc et al. ([2013]).

p53 gene = assay: Induction of p53 gene expression (RT-qPCR) in liver cell lines; format: cell-based, human; conditions: 30 µM B(a)P for 24 h
Method: as §4

Which “Sensitivity towards H2O2-induced DNA damage” value (HepaRG cells [1]) does the source give for OO [H2O2, hydrogen peroxide] here?
Its value is “by far less sensitive”.

Which “% DNA in tail” value (HCC 1.2 cells) does the source give for aflatoxin B1 [AFB1] here?
The value was 1.38 ± 0.48 3.74 ± 2.69 4.02 ± 1.22 8.75 ± 1.48 %.

And the “% DNA in tail” value (Hep3B cells)?
Its value is 0.93 ± 0.86 1.35 ± 0.81 4.03 ± 1.93* 4.31 ± 0.92 %.

What about the “% DNA in tail” value (HepG2 cells) of the same compound?
The value was 1.02 ± 0.28 0.85 ± 0.41 2.96 ± 0.66* 5.17 ± 1.57 %.

What about the “% DNA in tail” value (HepaRG cells [1]) of the same compound?
The value was 4.16 ± 1.40 11.6 ± 1.50* 9.67 ± 2.17* 7.5 ± 1.76 %.

What about the “Result of SCGE experiments (in words)” value (HepaRG cells [1]) of the same compound?
Its value is “detected”.

And the “% DNA in tail” value (HuH6 cells)?
Its value is 1.50 ± 1.09 3.35 ± 2.75 7.20 ± 3.1* 11.9 ± 4.30 %.

And the “% DNA in tail” value (HuH7 cells)?
The value was 6.29 ± 1.57 2.76 ± 0.52 3.12 ± 0.70 5.81 ± 4.64%.

And the “% DNA in tail” value (PLC/PRF cells)?
The value was 1.84 ± 1.44 4.57 ± 1.83 4.77 ± 1.75 6.68 ± 2.94 %.

What about the “% DNA in tail” value (SK-Hep1 cells) of the same compound?
The value was 0.60 ± 0.41 1.30 ± 0.37 1.13 ± 0.72 1.24 ± 0.88%.

What about the “% DNA in tail” value (SNU-398 cells) of the same compound?
Its value is 2.50 ± 1.08 2.53 ± 1.68 3.06 ± 0.28 2.83 ± 0.61%.

What about the “% DNA in tail” value (SNU-449 cells) of the same compound?
Its value is 2.87 ± 2.05 2.04 ± 2.18 1.14 ± 1.95 3.37 ± 3.14%.

And the “% DNA in tail” value (WRL68 cells)?
The value was 3.14 ± 1.66 2.32 ± 0.89 1.98 ± 0.41 1.72 ± 0.78%.

What about the “Number of the twelve lines sensitive towards the compound” value [2] of the same compound?
Its value is “Seven out of twelve lines”.

With N-nitrosodimethylamine [NDMA] as the compound, how does the “% DNA in tail” value (HCC 1.2 cells) read?
Its value is 1.77 ± 1.64 16.3 ± 4.52* 17.1 ± 3.64* 8.87 ± 0.30 %.

And the “% DNA in tail” value (Hep3B cells)?
The value was 0.57 ± 0.21 0.62 ± 0.45 0.92 ± 0.45 0.61 ± 0.47%.

And the “% DNA in tail” value (HepG2 cells)?
The value was 0.35 ± 0.21 0.83 ± 0.26 1.12 ± 0.72 1.55 ± 0.49 %.

And the “% DNA in tail” value (HepaRG cells [1])?
The value was 0.96 ± 0.59 1.47 ± 0.10 1.41 ± 1.04 5.09 ± 0.52 %.

What about the “Result of SCGE experiments (in words)” value (HepaRG cells [1]) of the same compound?
Its value is “detected”.

What about the “% DNA in tail” value (HuH6 cells) of the same compound?
The value was 1.73 ± 2.62 2.91 ± 1.45 6.86 ± 1.74* 13.1 ± 4.41 %.

What about the “% DNA in tail” value (HuH7 cells) of the same compound?
The value was 0.61 ± 0.35 0.69 ± 0.48 0.77 ± 0.60 3.01 ± 2.11 %.

And the “Result of SCGE experiments (in words)” value (HuH7 cells)?
The value was “induction of DNA damage was found”.

And the “% DNA in tail” value (JHH6 cells)?
The value was 1.17 ± 1.11 1.33 ± 0.66 1.69 ± 0.81 1.16 ± 0.53%.

And the “% DNA in tail” value (PLC/PRF cells)?
Its value is 1.15 ± 1.25 1.04 ± 0.33 1.65 ± 1.55 1.09 ± 0.33%.

What about the “% DNA in tail” value (SK-Hep1 cells) of the same compound?
Its value is 0.46 ± 0.16 0.70 ± 0.42 0.59 ± 0.24 0.37 ± 0.34%.

And the “% DNA in tail” value (SNU-398 cells)?
The value was 0.40 ± 0.14 0.65 ± 0.50 0.83 ± 0.53 0.28 ± 0.11%.

What about the “% DNA in tail” value (SNU-449 cells) of the same compound?
Its value is 0.23 ± 0.16 0.52 ± 0.24 0.54 ± 0.11 0.15 ± 0.03%.

And the “% DNA in tail” value (WRL68 cells)?
Its value is 0.43 ± 0.22 1.03 ± 0.74 0.93 ± 0.05 0.12 ± 0.01%.

What about the “Doses required to cause significant effects in SCGE assays” value [2] of the same compound?
Its value is ≥ 100 mM.

What about the “Number of the twelve lines sensitive towards the compound” value [2] of the same compound?
The value was “five”.

And the “Sensitivity of primary hepatocytes compared with HepG2” value [3]?
The value was “substantially stronger effects”.

Which “Result of SCGE experiments (in words)” value (HepaRG cells [4]) does the source give for CC(=O)Nc1ccc2c(c1)Cc1ccccc1-2 [2-acetylaminofluorene] here?
The value was “negative results”.

For Cc1ccc(N)cc1N [2,4-diaminotoluene], which “Result of SCGE experiments (in words)” value (HepaRG cells [4]) is on record?
Its value is “negative results”.

Which results are given for c1ccc2c(c1)cc1ccc3cccc4ccc2c1c34 [B(a)P, benzo(a)pyrene]?
P53 protein expression (Western Blot) Induced (p53 protein; HCC 1.2 cells, background +, mutated p53): +; P53 protein expression (Western Blot) Induced (p53 protein; Hep3B cells, background −): −; p53 protein induction (in words) (p53 protein; HepG2, B(a)P treatment for 24 h): induced; P53 protein expression (Western Blot) Induced (p53 protein; HepG2 cells, background +): +++; P53 protein expression (Western Blot) Induced (p53 protein; HepaRG cells, background +): +; p53 protein induction (in words) (p53 protein; HuH6, B(a)P treatment for 24 h): induced; P53 protein expression (Western Blot) Induced (p53 protein; HuH6 cells, background +): ++; P53 protein expression (Western Blot) Induced (p53 protein; HuH7 cells, background +): +; P53 protein expression (Western Blot) Induced (p53 protein; JHH6 cells, background +): +; P53 protein expression (Western Blot) Induced (p53 protein; PLC/PRF cells, background +): +; P53 protein expression (Western Blot) Induced (p53 protein; SK-Hep1 cells, background +): +; P53 protein expression (Western Blot) Induced (p53 protein; SNU-398 cells, background +, mutated p53): +; P53 protein expression (Western Blot) Induced (p53 protein; SNU-449 cells, background +): +; P53 protein expression (Western Blot) Induced (p53 protein; WRL68 cells, background +): +; P53 gene expression (RT-qPCR) Induced (p53 gene; HCC 1.2 cells, background 1): 1.50 ± 0.33; P53 gene expression (RT-qPCR) Induced (p53 gene; Hep3B cells, background 0): 0; P53 gene expression (RT-qPCR) Induced (p53 gene; HepG2 cells, background 1): 1.48 ± 0.18; P53 gene expression (RT-qPCR) Induced (p53 gene; HepaRG cells, background 1): 0.87 ± 0.14; P53 gene expression (RT-qPCR) Induced (p53 gene; HuH6 cells, background 1): 1.26 ± 0.01; P53 gene expression (RT-qPCR) Induced (p53 gene; HuH7 cells, background 1): 1.13 ± 0.01; P53 gene expression (RT-qPCR) Induced (p53 gene; JHH6 cells, background 1): 1.00 ± 0.03; P53 gene expression (RT-qPCR) Induced (p53 gene; PLC/PRF cells, background 1): 0.89 ± 0.05; P53 gene expression (RT-qPCR) Induced (p53 gene; SK-Hep1 cells, background 1): 1.04 ± 0.12; P53 gene expression (RT-qPCR) Induced (p53 gene; SNU-398 cells, background 1): 1.03 ± 0.15; P53 gene expression (RT-qPCR) Induced (p53 gene; SNU-449 cells, background 1): 0.95 ± 0.03; P53 gene expression (RT-qPCR) Induced (p53 gene; WRL68 cells, background 1): 0.96 ± 0.03; DNA migration in comet assay ([3]; primary liver cells, 50 µM, 3 h, statistically not analyzed, ref Monteith and Vanstone [1995]): increase of DNA migration; Sensitivity of primary hepatocytes compared with HepG2 ([3]; ref Wilkening et al. [2003]): no difference
